Experimental data: patent publication US20090312280A1
pIC50: −log10 of the molar value.

Experiments:
Fms = Fms (Homo sapiens, UniProt P07333); assay: biochemical kinase screening assay
FGFR3 = FGFR3 (Homo sapiens, UniProt P22607); assay: biochemical kinase screening assay
Ret = Ret (Homo sapiens, UniProt P07949); assay: biochemical kinase screening assay
Chk2 [1] = target: T1, Chk2 (Homo sapiens, UniProt O96017); assay: biochemical kinase screening assay; conditions: read-out: IC50 (nM), given as Ki
T1 sequence (O96017 whole entry): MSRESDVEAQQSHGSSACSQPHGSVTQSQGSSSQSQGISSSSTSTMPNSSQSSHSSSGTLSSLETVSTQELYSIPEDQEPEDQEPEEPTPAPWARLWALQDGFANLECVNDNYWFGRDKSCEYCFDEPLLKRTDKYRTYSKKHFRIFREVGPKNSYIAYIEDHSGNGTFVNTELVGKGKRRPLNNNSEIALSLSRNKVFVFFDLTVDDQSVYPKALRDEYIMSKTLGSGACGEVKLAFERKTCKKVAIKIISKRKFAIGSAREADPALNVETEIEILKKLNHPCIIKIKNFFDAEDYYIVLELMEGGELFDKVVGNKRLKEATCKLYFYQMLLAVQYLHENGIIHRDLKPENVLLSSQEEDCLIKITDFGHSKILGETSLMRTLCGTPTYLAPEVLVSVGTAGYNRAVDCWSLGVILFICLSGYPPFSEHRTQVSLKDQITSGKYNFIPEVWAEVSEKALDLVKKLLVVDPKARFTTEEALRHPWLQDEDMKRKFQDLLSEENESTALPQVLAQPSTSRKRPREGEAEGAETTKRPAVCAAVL

P70S6K = P70S6K (Homo sapiens, UniProt P23443); assay: biochemical kinase screening assay
Chain of P70S6K (P23443 whole entry): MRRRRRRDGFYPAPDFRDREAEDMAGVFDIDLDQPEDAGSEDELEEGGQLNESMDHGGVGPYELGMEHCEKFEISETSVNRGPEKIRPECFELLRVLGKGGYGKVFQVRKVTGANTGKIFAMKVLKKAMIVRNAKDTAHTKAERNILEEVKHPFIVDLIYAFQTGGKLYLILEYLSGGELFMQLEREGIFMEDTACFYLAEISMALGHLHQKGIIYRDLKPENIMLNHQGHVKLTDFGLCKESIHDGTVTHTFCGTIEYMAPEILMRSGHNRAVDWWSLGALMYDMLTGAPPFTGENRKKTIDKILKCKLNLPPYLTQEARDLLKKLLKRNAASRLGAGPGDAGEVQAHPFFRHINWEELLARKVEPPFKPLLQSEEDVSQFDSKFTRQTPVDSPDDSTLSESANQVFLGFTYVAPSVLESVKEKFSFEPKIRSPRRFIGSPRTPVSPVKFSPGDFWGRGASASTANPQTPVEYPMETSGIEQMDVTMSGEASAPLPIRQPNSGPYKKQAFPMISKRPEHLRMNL

Rsk1 = Rsk1 (Homo sapiens, UniProt Q15418); assay: biochemical kinase screening assay
Axl = Axl (Homo sapiens, UniProt P30530); assay: biochemical kinase screening assay
Lyn = Lyn (Homo sapiens, UniProt P07948); assay: biochemical kinase screening assay
PAR-1Ba = PAR-1Ba (Homo sapiens, UniProt Q7KZI7); assay: biochemical kinase screening assay
PDK1 = PDK1 (Homo sapiens, UniProt O15530); assay: biochemical kinase screening assay
Chain of PDK1 (O15530 whole entry): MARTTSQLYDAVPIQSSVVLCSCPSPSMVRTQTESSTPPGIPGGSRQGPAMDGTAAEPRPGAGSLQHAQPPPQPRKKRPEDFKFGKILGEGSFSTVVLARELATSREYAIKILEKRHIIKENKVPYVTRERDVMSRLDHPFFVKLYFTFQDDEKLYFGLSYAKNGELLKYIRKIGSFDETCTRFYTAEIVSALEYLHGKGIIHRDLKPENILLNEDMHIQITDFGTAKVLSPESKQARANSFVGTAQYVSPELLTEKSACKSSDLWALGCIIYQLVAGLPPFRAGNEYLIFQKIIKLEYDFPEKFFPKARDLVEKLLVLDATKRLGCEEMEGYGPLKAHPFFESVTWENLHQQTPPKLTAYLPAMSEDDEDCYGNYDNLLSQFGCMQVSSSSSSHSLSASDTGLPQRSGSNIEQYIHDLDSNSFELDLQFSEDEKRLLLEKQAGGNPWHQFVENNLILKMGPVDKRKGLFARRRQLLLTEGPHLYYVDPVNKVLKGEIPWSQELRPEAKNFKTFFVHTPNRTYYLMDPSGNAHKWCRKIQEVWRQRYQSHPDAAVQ

Rsk2 = Rsk2 (Homo sapiens, UniProt P51812); assay: biochemical kinase screening assay
Abl(m) = Abl(m) (Mus musculus, UniProt P00520); assay: biochemical kinase screening assay
Chain of Abl(m) (P00520 whole entry): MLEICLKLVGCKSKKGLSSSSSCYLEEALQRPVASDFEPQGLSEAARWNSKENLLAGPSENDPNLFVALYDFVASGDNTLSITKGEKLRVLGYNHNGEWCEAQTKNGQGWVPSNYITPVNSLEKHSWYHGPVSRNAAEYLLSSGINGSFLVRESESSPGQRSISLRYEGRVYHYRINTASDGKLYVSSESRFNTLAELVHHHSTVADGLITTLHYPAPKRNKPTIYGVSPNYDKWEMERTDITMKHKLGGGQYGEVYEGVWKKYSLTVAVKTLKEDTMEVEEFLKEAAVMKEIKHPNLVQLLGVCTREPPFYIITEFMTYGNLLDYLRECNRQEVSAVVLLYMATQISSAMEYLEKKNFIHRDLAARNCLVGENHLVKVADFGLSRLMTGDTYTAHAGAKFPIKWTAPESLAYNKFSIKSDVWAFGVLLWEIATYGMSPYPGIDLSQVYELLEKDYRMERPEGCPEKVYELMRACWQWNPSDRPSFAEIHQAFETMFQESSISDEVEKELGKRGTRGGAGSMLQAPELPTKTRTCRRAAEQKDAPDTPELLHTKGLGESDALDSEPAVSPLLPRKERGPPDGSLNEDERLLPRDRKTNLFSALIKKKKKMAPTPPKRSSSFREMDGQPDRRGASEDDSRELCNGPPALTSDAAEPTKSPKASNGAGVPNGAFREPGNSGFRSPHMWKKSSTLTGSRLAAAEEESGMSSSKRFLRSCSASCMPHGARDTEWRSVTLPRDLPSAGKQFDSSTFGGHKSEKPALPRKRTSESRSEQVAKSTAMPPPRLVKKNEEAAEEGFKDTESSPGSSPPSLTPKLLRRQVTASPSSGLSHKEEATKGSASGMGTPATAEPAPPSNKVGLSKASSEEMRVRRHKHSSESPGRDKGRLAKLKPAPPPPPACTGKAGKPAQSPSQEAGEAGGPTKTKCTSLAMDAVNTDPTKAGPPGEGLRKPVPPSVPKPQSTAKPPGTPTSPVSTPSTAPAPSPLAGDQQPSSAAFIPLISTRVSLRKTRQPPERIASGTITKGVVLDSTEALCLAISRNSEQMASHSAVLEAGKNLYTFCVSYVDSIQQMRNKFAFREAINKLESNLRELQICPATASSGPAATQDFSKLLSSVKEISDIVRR

PKBa = PKBa (Homo sapiens, UniProt P31749); assay: biochemical kinase screening assay
Chain of PKBa (P31749 whole entry): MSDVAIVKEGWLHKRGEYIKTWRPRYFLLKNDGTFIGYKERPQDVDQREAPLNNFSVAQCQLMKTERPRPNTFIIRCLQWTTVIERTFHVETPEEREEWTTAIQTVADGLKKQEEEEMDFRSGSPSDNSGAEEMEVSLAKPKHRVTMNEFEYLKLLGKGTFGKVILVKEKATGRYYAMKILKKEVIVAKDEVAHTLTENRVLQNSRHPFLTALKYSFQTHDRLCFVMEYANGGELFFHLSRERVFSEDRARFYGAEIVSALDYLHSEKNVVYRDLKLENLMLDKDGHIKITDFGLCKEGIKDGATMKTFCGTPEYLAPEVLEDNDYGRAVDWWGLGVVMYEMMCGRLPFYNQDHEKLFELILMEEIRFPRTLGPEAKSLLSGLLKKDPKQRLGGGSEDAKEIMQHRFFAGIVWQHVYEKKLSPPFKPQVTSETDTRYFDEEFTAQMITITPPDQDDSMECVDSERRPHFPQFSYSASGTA

EphB4 = EphB4 (Homo sapiens, UniProt P54760); assay: biochemical kinase screening assay
Chk2 [2] = target: T1, Chk2; assay: cell-based or ex vivo assays of CHK2 activity
Colo205 (Colon) = assay: cell survival / MTT combination cytotoxicity; assay type: cell-based, human; conditions: Homo sapiens, COLO 205
MDA-MB-231 (Breast) = assay: cell survival / MTT combination cytotoxicity; assay type: cell-based, human; conditions: Homo sapiens
[3] = tested on: p53-defective human cancer cell lines; assay: cell survival / MTT assays, cell line not named; assay type: cell-based
HUVEC cells = assay: cell survival assay in normal cells; assay type: cell-based
Experimental: (§1) The cytotoxic effect induced by the combination treatment in HUVEC cells is negligible compared with the cytotoxicity induced by the same treatment in tumor cells. […] A cell survival assay was also performed in HTC116 cells (human colon carcinoma) that were transiently transfected with a plasmid containing either p53 wild type or mutant.

mutant p53 HCT116 cells = assay: cell survival assay, transiently transfected p53 mutant; assay type: cell-based, human; conditions: Compound 1 + gemcitabine compared with gemcitabine alone
Experimental: as §1

[4] = tested on: wild type p53 HCT116 cells; assay: cell survival assay, transiently transfected p53 wild type; assay type: cell-based, human; conditions: Compound 1 + gemcitabine compared with gemcitabine alone
Experimental: as §1

in vivo = conditions: mouse
Lck = Lck (Homo sapiens, UniProt P06239); assay: biochemical
Chain of Lck (P06239 whole entry): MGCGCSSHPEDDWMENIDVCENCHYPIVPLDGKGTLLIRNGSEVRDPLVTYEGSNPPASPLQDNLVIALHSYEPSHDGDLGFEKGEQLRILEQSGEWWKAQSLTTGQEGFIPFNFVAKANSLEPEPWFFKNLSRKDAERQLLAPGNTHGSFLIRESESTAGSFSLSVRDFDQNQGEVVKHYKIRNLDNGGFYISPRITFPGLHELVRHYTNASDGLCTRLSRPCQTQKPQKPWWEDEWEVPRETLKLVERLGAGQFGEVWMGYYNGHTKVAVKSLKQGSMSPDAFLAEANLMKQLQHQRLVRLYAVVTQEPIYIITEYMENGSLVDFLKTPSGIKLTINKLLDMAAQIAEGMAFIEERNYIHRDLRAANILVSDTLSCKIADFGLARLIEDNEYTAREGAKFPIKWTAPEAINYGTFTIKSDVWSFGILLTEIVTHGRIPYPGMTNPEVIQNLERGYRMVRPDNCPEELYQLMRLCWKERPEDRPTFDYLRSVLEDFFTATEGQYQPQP

[5] = maximum tolerated dose by mean body weight loss; conditions: in vivo

Chain of Fms (P07333 20-972): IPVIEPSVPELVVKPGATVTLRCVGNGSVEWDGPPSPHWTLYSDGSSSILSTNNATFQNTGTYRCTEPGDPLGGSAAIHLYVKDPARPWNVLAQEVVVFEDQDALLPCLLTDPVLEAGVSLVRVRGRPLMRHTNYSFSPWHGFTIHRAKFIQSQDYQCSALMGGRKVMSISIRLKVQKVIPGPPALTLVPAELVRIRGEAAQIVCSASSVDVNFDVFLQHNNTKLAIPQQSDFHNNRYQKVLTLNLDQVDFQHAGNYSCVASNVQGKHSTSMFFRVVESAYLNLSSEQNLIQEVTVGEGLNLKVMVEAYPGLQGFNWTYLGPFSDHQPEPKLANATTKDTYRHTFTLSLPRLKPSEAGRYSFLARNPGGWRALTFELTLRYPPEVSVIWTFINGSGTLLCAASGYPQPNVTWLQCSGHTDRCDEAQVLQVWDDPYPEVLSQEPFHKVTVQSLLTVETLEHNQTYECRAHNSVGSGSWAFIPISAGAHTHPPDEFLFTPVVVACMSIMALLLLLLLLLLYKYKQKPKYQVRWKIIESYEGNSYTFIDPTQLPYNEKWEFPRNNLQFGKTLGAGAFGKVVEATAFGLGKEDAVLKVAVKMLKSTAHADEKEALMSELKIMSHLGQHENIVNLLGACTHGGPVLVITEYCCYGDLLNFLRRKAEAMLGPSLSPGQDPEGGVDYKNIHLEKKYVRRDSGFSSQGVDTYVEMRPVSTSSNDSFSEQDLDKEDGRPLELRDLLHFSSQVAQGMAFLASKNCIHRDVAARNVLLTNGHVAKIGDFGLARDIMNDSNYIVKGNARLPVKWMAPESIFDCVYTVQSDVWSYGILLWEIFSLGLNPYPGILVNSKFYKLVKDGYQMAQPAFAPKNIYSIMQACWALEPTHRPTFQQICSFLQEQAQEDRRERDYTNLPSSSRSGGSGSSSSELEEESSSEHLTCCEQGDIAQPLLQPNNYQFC

Question: With `Cn1cc(-c2[nH]c3cc(NC(=O)[C@H](N)C4CCCCC4)cc4c3c2C=NNC4=O)cn1` [Compound 1] as the compound, how does the pIC50 (Fms) read?
Answer: 8.00

Question: And the pIC50 (FGFR3)?
Answer: 7.64

Question: And the pIC50 (Ret)?
Answer: 7.41

Question: What about the Ki (Chk2 [1]) of the same compound?
Answer: 47 nM

Question: What about the pIC50 (P70S6K) of the same compound?
Answer: 7.21

Question: What about the pIC50 (Rsk1) of the same compound?
Answer: 7.01

Question: What about the pIC50 (Axl) of the same compound?
Answer: 6.93

Question: And the pIC50 (Lyn)?
Answer: 6.58

Question: And the pIC50 (PAR-1Ba)?
Answer: 6.46

Question: What about the pIC50 (PDK1) of the same compound?
Answer: 6.36

Question: And the pIC50 (Rsk2)?
Answer: 6.21

Question: What about the pIC50 (Abl(m)) of the same compound?
Answer: 6.03

Question: What about the pIC50 (PKBa) of the same compound?
Answer: 5.04

Question: What about the pIC50 (EphB4) of the same compound?
Answer: < 5.00

Question: What about the “modulation of CHK2 activity” value (Chk2 [2]) of the same compound?
Answer: no evidence that CHK2 activity is modulated

Question: What about the pIC50 (Colo205 (Colon)) of the same compound?
Answer: 5.89

Question: What about the pIC50 (MDA-MB-231 (Breast)) of the same compound?
Answer: 5.85

Question: What about the “effect on cell viability” value ([3]; Compound 1 alone compared with control (untreated) cells) of the same compound?
Answer: no significant effect on cell viability

Question: And the “potentiation of gemcitabine cytotoxicity” value ([3]; combination with gemcitabine compared with gemcitabine alone)?
Answer: 89%

Question: And the “increase in cell kill” value (HUVEC cells; Compound 1 540 nM (12×EC50) + camptothecin compared with camptothecin alone)?
Answer: 21.7

Question: And the “increase in cell kill” value (HUVEC cells; Compound 1 540 nM (12×EC50) + gemcitabine compared with gemcitabine alone)?
Answer: 31.2%

Question: What about the cell growth inhibition (mutant p53 HCT116 cells) of the same compound?
Answer: 44%

Question: What about the cell growth inhibition [4] of the same compound?
Answer: 15%

Question: What about the MTD (in vivo) of the same compound?
Answer: 60 mg/kg

Question: What about the pIC50 (Lck) of the same compound?
Answer: 6.40

Question: And the MTD [5]?
Answer: 40 mg/kg
